Entries after “also recorded” stand apart in the source; their conditions may differ. Read-outs that look alike come from different tables or passages of the source.
Columns and labels:
[1] = test system: MNU-induced mammary cancer; test: 180-day study of RTMBE for suppression of MNU-induced mammary carcinogenesis (Expt. 3); format: in vivo, rat (female Sprague-Dawley); details: second, confirmatory experiment; 2 mmol/kg of diet, 180 days
[2] = Tissue concentrations resulting from gavage of rats with RTMBE; format: in vivo, rat (female Sprague-Dawley); details: for concentration at 168 h / concentration at 336 h: rat, po, 14 mg/day by gavage; for concentration at 168 h: 7 days; for concentration at 336 h: 14 days
Protocol: To plasma samples (50-200 μl), ten volumes of acetonitrile were added, and the preparations were centrifuged. The supernatants were evaporated to dryness under nitrogen and reconstituted in the mobile phase (see below). Tissues were homogenized in four volumes of water at 0° C., and each homogenate was extracted with acetonitrile (50 mL/g tissue). From this point, handling of plasma and tissue samples was identical. Portions (25-50 μl) of the reconstituted samples were analyzed by reverse-phase HPLC. The chromatographic system was composed of a Beckman solvent delivery module 110B, analogue interface module 406, programable detector module 166, and autosampler 507. The column was a Hypersil ODS, 5-μ, 250×4.6 mm. Elution was accomplished with a solvent of methanol:0.2%acetic acid (93.5:6.5, v/v) with the final solution containing 0.02% triethylamine. The flow rate was 1 mL/min, with detection at 340 nm.
The concentrations of RTMBE in the serum, mammary gland, and liver of rats, as well as the levels of RP in the liver, were determined after administration of RTMBE by gavage during 14 days (Table 9). […] In order to investigate further the accumulation of retinyl benzyl ethers in mammary tissue, RTMBE, the 2,5-dimethoxybenzyl ether (3b), and the 4-methoxybenzyl (3e) ether were administered intravenously (via a tail vein) at 5 mg/kg to female Sprague-Dawley rats (3 with each retinoid). Acetonitrile extracts of plasma and mammary tissue were analyzed by HPLC. The ratios of mammary tissue-to-plasma concentrations of RTMBE, 3b, and 3e were 183±77, 38±20, and 41±14, respectively, after 24 hr.
^a The dose of 14 mg/day by gavage is equivalent to a feeding dose of 2

[3] = Analysis of feed samples for stability of retinyl ethers; format: physicochemical
Protocol: (§1) The 2,5-dimethoxybenzyl (3b) and 4-methoxybenzyl (3e) ethers were tested in the same way in a 90-day study. […] The 2,5-dimethybenzyl (3c) and the 2,3-dimethoxybenzyl (3h) ethers, together with RTMBE for comparison, were likewise assayed according to the same methodology. Prior to the beginning of this study, specimens of the retinoid-diet mixtures were placed under the conditions that were employed during the storage and feeding of RTMBE, 3c, and 3h. The specimens were extracted with butanol, and the extracts were analyzed by HPLC. […] Testing of 3c and 3h was discontinued, but the RTMBE study was continued until the duration of the study was 180 days (Table 6). The results were similar to those of Experiment 1 (Table 3). The averages of the number of tumors per rat were reduced by 32-35%; in addition, the averages of the tumor weights per rat was 56-70% lower than the average tumor burden of the control group.
^a The values in each column are % recoveries of the retinyl ether from
mixtures of the ether with feed samples and are based on the actual
amounts of the ether that were added.
^b The samples that were analyzed were mixtures of vehicle, retinoid,
and feed (prepared as described by Shealy et al., 1997).
^c Food cups were placed in animal cages within the room that housed
the rats; therefore, temperature (22° C.) and lighting were
identical to those in use during the in vivo tests.

[4] = Stability of retinyl ethers in storage and in solution; format: physicochemical
[5] = Mammary tissue-to-plasma concentration after intravenous dosing; format: in vivo, rat (female Sprague-Dawley); details: rat, 5 mg/kg i.v., after 24 hr, read-out: ratio of mammary tissue-to-plasma concentrations
[6] = test system: MNU-induced mammary cancer; test: 180-day study of RTMBE for suppression of MNU-induced mammary carcinogenesis (Expt. 3); format: in vivo, rat (female Sprague-Dawley)
Protocol: (§2) Retinoid diet mixtures were stored at 4° C. […] The animals were palpated for mammary tumors 2×/week. […] Also, five rats/group had complete necropsies performed.
as §1
^a Each group of female Sprague-Dawley rats (10/group) received one
until Day 180 after injection of MNU.
and was continued until the study was terminated at 180 days after MNU.

[7] = in vivo
Protocol: Toxicological evaluations involving measurement of body weights and observations of clinical signs characteristic of retinoid toxicity were accomplished as previously described (Lin et al., 1996).
RTMBE and two of its analogues, together with RME and RPE, were selected for estimation of their toxicities to mice when administered during 28-29 days by gavage in corn oil (Table 8). Mice were evaluated for changes in body weight and for signs of clinical retinoid toxicity (hypervitaminosis A) including alopecia, scaly skin, and limping. In the first experiment, these retinyl ethers were given at equimicromolar doses at three dose levels. The retinyl benzyl ethers (RTMBE, 3c, and 3e) were then tested at higher doses in a second experiment.

[8] = Toxicity observations in rats receiving retinoids in feed; format: in vivo, rat (Sprague-Dawley); details: administered in feed, listed as RTMBE
Protocol: as §2

[9] = test system: MNU-induced mammary cancer; details: for Adenocarcinomas, % of Control Group A / Adenocarcinomas, Avg. No. Per Rat / reduction of average number of tumors per rat: 160 days
Protocol: Briefly, diets were prepared by mixing each retinoid with Wayne meal or Teklad (4%) mash diet. For each kg of diet, the retinoid was dissolved in 12 g ethanol, 19 g trioctanoin, 0.05 mL Tenox 20, and 0.05 mL d,1-alpha tocopherol prior to incorporation into the feed using a Patterson-Kelly blender. Retinoid diet mixtures were stored at 4° C. Portions of each retinoid-diet mixture were analyzed for the added retinoid to ensure homogeneity. Female Sprague-Dawley rats received an i.v. injection of MNU (45 mg/kg body weight) at 50 days of age. Diet supplementation with retinoids was initiated three days after MNU. A group of rats receiving retinyl acetate (1 mmol/kg of diet) served as the positive control. The animals were palpated for mammary tumors 2×/week. At termination of the study, mammary tumors were processed for histological classification. Also, five rats/group had complete necropsies performed. The tissues were examined histologically for pathological lesions as additional toxicological evaluation. Extracts of the liver and mammary gland (5 rats/group) were analyzed by HPLC for retinyl palmitate and/or for the dosed retinoid. Statistical analyses of cancer incidence and latency were determined using logrank analysis, while differences in cancer multiplicity were determined employing the Armitage test.
In this assay, described previously (Grubbs et al., 1995; Shealy el al., 1997), a retinoid dissolved in a solution (vehicle) consisting of ethanol and trioctanoin plus small amounts of Tenox 20 and α-tocopherol was mixed with feed, and the mixture was fed to rats after intravenous injection of MNU.
^a Female Sprague-Dawley rats (10/group) received one i.v. injection of
MNU (45 mg/kg of body weight) at 50 days of age. Diet supplementation with
retinoids was initiated at 52 days of age and was continued until the
study was terminated 160 days after administration of MNU.
^b Treatment with retinoids is stated in millimoles of retinoid per
kilogram of diet (Wayne meal).

[10] = mammary gland, read-out: RTMBE, Mammary Gland
[11] = 7 days, 25.5±1.5° C., protected

COc1cc(COC/C=C(C)/C=C/C=C(C)/C=C/C2=C(C)CCCC2(C)C)cc(OC)c1OC [Compound 2, Retinyl 3,4,5-Trimethoxybenzyl Ether]
reduction of adenocarcinoma formation, compared with retinyl acetate [1]: somewhat more effectively than retinyl acetate | liver levels of RP compared with vehicle group ([2]; after 14 days, gavage): only slightly higher than the levels of the vehicle group | change of serum concentration of RTMBE ([2]; between 7 and 14 days, gavage): did not change significantly | increase of concentration in mammary gland ([2]; between 7 and 14 days, gavage): more than two-fold | increase of liver level of RTMBE ([2]; between 7 and 14 days, gavage): 22% | concentration at 168 h ([2]; liver, read-out: RTMBE, Liver): 78900 ± 7500 ng/g | concentration at 336 h ([2]; liver, read-out: RTMBE, Liver): 96100 ± 11100 ng/g | concentration at 168 h [2, 10]: 83300 ± 7300 ng/g | concentration at 336 h [2, 10]: 178000 ± 11100 ng/g | concentration at 168 h ([2]; serum, read-out: RTMBE, Serum): 16300 ± 2500 ng/mL | concentration at 336 h ([2]; serum, read-out: RTMBE, Serum): 17300 ± 2200 ng/mL | % recovery of retinyl ether from feed ([3]; After 1 week of 4° C., 10080 min): 101% | % recovery of retinyl ether from feed ([3]; After 1 day in food cup (22° C.)): 97% | % recovery of retinyl ether from feed ([3]; After 2 days in food cup (22° C.)): 104% | % recovery of retinyl ether from feed ([3]; After 3 days in food cup (22° C.)): 97.5% | % recovery of retinyl ether from feed ([3]; Immediately After Mixing): 99.8% | % recovery of retinyl ether ([3]; Vehicle + Retinoid (only)): 97% | stability in diet mixtures ([3]; conditions of storage and feeding in animal rooms): essentially unchanged | stability on storage ([4]; 5 years at -20° C., inert atmosphere): unchanged | stability in DMSO [4, 11]: changed very little | stability in absolute ethanol [4, 11]: practically unchanged | remaining at 43830 h ([4]; inert atmosphere storage, 5 years at -20° C., inert atmosphere, read-out: HPLC on re-analysis after storage): 99.2% | Kp at 24 h [5]: 183 ± 77 | Adenocarcinomas, % of Control Gp. ([6]; 0.5 mmol/kg diet, 180 days): 65% | Adenocarcinomas, Avg. No. Per Rat ([6]; 0.5 mmol/kg diet, 180 days): 4.07 | Final Body Wt. ([6]; 0.5 mmol/kg diet, 180 days): 259 g | Tumor Wt. Per Rat ([6]; 0.5 mmol/kg diet, 180 days): 7.0 g | Adenocarcinomas, % of Control Gp. ([6]; 1 mmol/kg diet, 180 days): 67% | Adenocarcinomas, Avg. No. Per Rat ([6]; 1 mmol/kg diet, 180 days): 4.20 | Final Body Wt. ([6]; 1 mmol/kg diet, 180 days): 252 g | Tumor Wt. Per Rat ([6]; 1 mmol/kg diet, 180 days): 7.57 g | Adenocarcinomas, % of Control Gp. ([6]; 2 mmol/kg diet, 180 days): 68% | Adenocarcinomas, Avg. No. Per Rat ([6]; 2 mmol/kg diet, 180 days): 4.27 | Final Body Wt. ([6]; 2 mmol/kg diet, 180 days): 246 g | Tumor Wt. Per Rat ([6]; 2 mmol/kg diet, 180 days): 5.14 g | average tumor weight per rat lower than control group ([6]; 180 days, 0.5-2 mmol/kg diet): 56-70% | reduction of average number of tumors per rat ([6]; 180 days, 0.5-2 mmol/kg diet): 32-35% | suppression of MNU-induced mammary cancer ([6]; three long-term experiments of 160-180 days): suppressed MNU-induced mammary cancer | NOAEL ([7]; mouse, in vivo, po): 249 mg/kg/day | Toxic Dose ([7]; oral gavage in corn oil, 28-29 days): > 249 mg/kg day | clinical toxicity (alopecia, scaly skin, limping) ([7]; oral gavage, up to highest dose (RTMBE and RMoBE-4: Expt. 2)): No evidence of clinical toxicity | toxicity in MNU-mammary cancer studies [8]: Overt toxicity was not evident; also recorded: not toxic in the mammary carcinogenesis studies | Adenocarcinomas, % of Control Group A ([9]; 0.5 mmol/kg diet): 100% | Adenocarcinomas, Avg. No. Per Rat ([9]; 0.5 mmol/kg diet): 6.5 | Adenocarcinomas, % of Control Group A ([9]; 1 mmol/kg diet): 55% | Adenocarcinomas, Avg. No. Per Rat ([9]; 1 mmol/kg diet): 3.6 | reduction of average number of tumors per rat ([9]; 1 mmol/kg feed): 46% | Adenocarcinomas, % of Control Group A ([9]; 2 mmol/kg diet): 54% | Adenocarcinomas, Avg. No. Per Rat ([9]; 2 mmol/kg diet): 3.5 | reduction of average number of tumors per rat ([9]; 2 mmol/kg feed): 45% | prevention / suppression of mammary cancer, general statement ([9]; animal model / in vivo initial study): suppress mammary cancer in vivo

From US6281250A, “Retinyl ethers, derivatives and analogues and inhibition of breast carcinogenesis” (Southern Research Institute, priority 1999, dated 2001)
